Our source for the IC50 values is US20230014445A1, “ALLOSTERIC CHROMENONE INHIBITORS OF PHOSPHOINOSITIDE 3-KINASE (PI3K) FOR THE TREATMENT OF DISEASE” (Petra Pharma Corporation, priority 2021, published 2023).

For assay [1], the target named is T1, human full length PIK3KA H1047R mutant (p110α/p85α complex) (Homo sapiens, UniProt P42336, H1047R).
T1 construct: Recombinant, catalytically active human full length PIK3KA Wild-type and H1047R mutant were purchased; 6xHis (N); purchased EMD Millipore Sigma 14-792M
T1 sequence (P42336 whole entry H1047R): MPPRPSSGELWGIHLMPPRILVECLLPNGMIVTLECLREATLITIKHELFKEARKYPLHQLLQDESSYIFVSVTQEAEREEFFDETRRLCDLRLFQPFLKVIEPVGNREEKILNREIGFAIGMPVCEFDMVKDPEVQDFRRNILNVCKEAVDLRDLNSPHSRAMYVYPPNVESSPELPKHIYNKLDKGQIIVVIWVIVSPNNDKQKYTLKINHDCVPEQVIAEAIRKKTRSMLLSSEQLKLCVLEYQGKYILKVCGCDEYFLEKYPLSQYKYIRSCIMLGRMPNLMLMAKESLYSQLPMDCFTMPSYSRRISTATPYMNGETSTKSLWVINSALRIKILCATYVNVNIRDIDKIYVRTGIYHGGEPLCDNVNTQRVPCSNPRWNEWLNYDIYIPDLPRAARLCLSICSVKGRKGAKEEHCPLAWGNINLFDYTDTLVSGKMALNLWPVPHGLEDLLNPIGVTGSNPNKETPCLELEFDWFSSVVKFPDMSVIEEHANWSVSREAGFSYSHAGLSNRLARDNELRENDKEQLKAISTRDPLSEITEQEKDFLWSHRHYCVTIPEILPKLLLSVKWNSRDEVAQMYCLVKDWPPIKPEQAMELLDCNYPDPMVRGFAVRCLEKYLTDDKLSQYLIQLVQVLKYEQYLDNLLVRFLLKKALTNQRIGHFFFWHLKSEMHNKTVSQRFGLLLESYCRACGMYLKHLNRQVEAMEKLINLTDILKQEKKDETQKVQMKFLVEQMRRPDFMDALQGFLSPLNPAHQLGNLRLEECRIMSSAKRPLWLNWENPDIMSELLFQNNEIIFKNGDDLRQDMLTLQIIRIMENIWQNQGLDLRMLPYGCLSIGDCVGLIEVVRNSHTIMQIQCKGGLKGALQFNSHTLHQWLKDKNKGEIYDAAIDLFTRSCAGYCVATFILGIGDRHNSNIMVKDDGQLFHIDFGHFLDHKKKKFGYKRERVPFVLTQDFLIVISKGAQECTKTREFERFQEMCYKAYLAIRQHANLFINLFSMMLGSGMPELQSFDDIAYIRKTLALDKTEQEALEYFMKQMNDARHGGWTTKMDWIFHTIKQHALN
T1 sequence (P27986 whole entry partner): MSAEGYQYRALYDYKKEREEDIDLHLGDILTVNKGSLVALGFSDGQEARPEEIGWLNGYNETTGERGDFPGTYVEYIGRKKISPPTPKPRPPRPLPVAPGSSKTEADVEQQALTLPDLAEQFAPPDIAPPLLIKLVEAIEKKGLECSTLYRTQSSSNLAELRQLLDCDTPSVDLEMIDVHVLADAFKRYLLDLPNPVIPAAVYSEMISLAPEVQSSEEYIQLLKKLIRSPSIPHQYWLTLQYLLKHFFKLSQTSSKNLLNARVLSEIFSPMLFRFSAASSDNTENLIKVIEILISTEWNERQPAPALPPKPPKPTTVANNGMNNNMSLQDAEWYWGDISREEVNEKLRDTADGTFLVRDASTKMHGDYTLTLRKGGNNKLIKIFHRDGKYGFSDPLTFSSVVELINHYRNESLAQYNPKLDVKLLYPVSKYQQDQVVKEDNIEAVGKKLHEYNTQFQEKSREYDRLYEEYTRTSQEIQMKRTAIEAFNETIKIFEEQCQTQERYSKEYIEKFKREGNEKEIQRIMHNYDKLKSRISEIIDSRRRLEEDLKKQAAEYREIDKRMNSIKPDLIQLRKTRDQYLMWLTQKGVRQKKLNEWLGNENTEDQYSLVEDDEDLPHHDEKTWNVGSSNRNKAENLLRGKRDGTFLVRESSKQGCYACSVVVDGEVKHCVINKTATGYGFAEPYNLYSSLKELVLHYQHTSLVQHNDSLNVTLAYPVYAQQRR
Kind of assay: PI3K-Alpha Kinase (PIK3CA) biochemical activity, H1047R mutant (ADP-Glo). Particulars: 20 uM ATP. In outline:
(§1)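 ADP formation, measured by ADP-Glo luminescence after reaction to about 10% ATP conversion at 27° C., gives 10-point 4-parameter IC50 curves normalized to no-enzyme and DMSO controls. Lipid substrate was PIP2diC8 or Soy PI at 50 uM, with 20 uM ATP. WT or H1047R p110α/p85α complex (1-5 nM) was preincubated 1 h with compound.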
(ADP-Glo first removes unused ATP, then detects ADP through luciferase.)

Assay [2] has as its target T2, human full length PIK3KA Wild-type (p110α/p85α complex) (Homo sapiens, UniProt P42336).
T2 construct: Recombinant, catalytically active human full length PIK3KA Wild-type and H1047R mutant were purchased; 6xHis (N); purchased EMD Millipore Sigma 14-602M
Kind of assay: PI3K-Alpha Kinase (PIK3CA) biochemical activity, wild-type (ADP-Glo). Particulars: 20 uM ATP. Put shortly:
as §1

`Cc1cc(C(C)Nc2ccccc2C(=O)O)c2oc(-c3ccc(C(F)(F)F)nc3)cc(=O)c2c1` (single isomer, unassigned; isomer 2) [Example 38, 2-[1-[6-Methyl-4-oxo-2-[6-(trifluoromethyl)-3-pyridyl]chromen-8-yl]ethylamino]benzoic acid, Isomer 2]: the IC50 in assay [1] (Soy PI lipid substrate) was less than 0.5 µM; in assay [2] (Soy PI lipid substrate) it was greater than 10 µM.

As to `Cc1cc(C(C)Nc2ccccc2C(=O)O)c2oc(-c3cnn(C)c3)cc(=O)c2c1` (centres unmarked) [Example 47, 2-[1-[6-Methyl-2-(1-methylpyrazol-4-yl)-4-oxo-chromen-8-yl]ethylamino]benzoic acid], the figures for the IC50 in assay [1] (PIP2diC8 lipid substrate) and in assay [2] (PIP2diC8 lipid substrate) were 0.5 to 1 µM and 1 to 5 µM, respectively.

Consider `Cc1cc(C(C)Nc2ccccc2C(=O)O)c2oc(-c3ccc(OC(C)C)nc3)cc(=O)c2c1` (centres unmarked) [Example 1, 2-[1-[2-(6-Isopropoxy-3-pyridyl)-6-methyl-4-oxo-chromen-8-yl]ethylamino]benzoic acid 2,2,2-trifluoroacetic acid], for which the results for the IC50 in assay [1] (Soy PI lipid substrate) and in assay [2] (Soy PI lipid substrate) were 0.5 to 1 µM and greater than 10 µM, respectively.

Regarding `Cc1cc(C(C)Nc2ccccc2C(=O)O)c2oc(-c3ccc(S(C)(=O)=O)nc3)cc(=O)c2c1` (centres unmarked) [Example 7, 2-[1-[6-Methyl-2-(6-methylsulfonyl-3-pyridyl)-4-oxo-chromen-8-yl]ethylamino]benzoic acid 2,2,2-trifluoroacetic acid], the results for the IC50 in assay [1] (Soy PI lipid substrate) and in assay [2] (Soy PI lipid substrate) were less than 0.5 µM and greater than 10 µM, respectively.

Turning to `Cc1cc(C(C)Nc2ccccc2C(=O)O)c2oc(-c3cccc(C(F)F)n3)cc(=O)c2c1` (single isomer, unassigned; isomer 2) [Example 71, 2-[1-[2-[6-(Difluoromethyl)-2-pyridyl]-6-methyl-4-oxo-chromen-8-yl]ethylamino]benzoic acid, Isomer 2], the IC50 in assay [1] (Soy PI lipid substrate) was less than 0.5 µM; in assay [2] (Soy PI lipid substrate), 5 to 10 µM.

Turning to `COc1cccc(-n2cc(-c3cc(=O)c4cc(C)cc(C(C)Nc5ccccc5C(=O)O)c4o3)nn2)c1` (single isomer, unassigned; isomer 2) [Example 98, 2-[1-2-[1-(3-Methoxyphenyl)triazol-4-yl]-6-methyl-4-oxo-chromen-8-yl]ethylamino]benzoic acid, Isomer 2], the IC50 in assay [1] (Soy PI lipid substrate) is less than 0.5 µM; in assay [2] (Soy PI lipid substrate) it was 1 to 5 µM.

For `Cc1cc(C(C)Nc2ccccc2C(=O)O)c2oc(-c3cnc(OC(C)C)nc3)cc(=O)c2c1` (centres unmarked) [Example 6, 2-[1-[2-(2-Isopropoxypyrimidin-5-yl)-6-methyl-4-oxo-chromen-8-yl]ethylamino]benzoic acid 2,2,2-trifluoroacetic acid], the IC50 in assay [1] (Soy PI lipid substrate) is less than 0.5 µM; in assay [2] (Soy PI lipid substrate), greater than 10 µM.

With `Cc1cc(C(C)Nc2ccccc2C(=O)O)c2oc(-c3ncccn3)cc(=O)c2c1` (single isomer, unassigned; isomer 2) [Example 3, 2-[1-(6-Methyl-4-oxo-2-pyrimidin-2-yl-chromen-8-yl)ethylamino]benzoic acid, Isomer 2], the IC50 in assay [1] (Soy PI lipid substrate) is less than 0.5 µM; in assay [2] (Soy PI lipid substrate) it was greater than 10 µM.

In the case of `Cc1cc(C(C)Nc2ccccc2C(=O)O)c2oc(-c3cnn(-c4cccnc4)c3)c(C)c(=O)c2c1` (single isomer, unassigned) [Example 63, 2-[1-[3,6-Dimethyl-4-oxo-2-[1-(3-pyridyl)pyrazol-4-yl]chromen-8-yl]ethylamino]benzoic acid, Isomer 1,2,2,2-trifluoroacetic acid], the IC50 in assay [1] (Soy PI lipid substrate) is less than 0.5 µM; in assay [2] (Soy PI lipid substrate), 1 to 5 µM.

Regarding `Cc1cc(C(C)Nc2ccccc2C(=O)O)c2oc(-n3cccn3)cc(=O)c2c1` (single isomer, unassigned) [Example 58, 2-[1-(6-Methyl-4-oxo-2-pyrazol-1-yl-chromen-8-yl)ethylamino]benzoic acid, Isomer 2,2,2,2-trifluoroacetic acid], the IC50 in assay [1] (Soy PI lipid substrate) was less than 0.5 µM; in assay [2] (Soy PI lipid substrate), 5 to 10 µM.

For `COc1ccc(-n2cc(-c3oc4c(C(C)Nc5ccccc5C(=O)O)cc(C)cc4c(=O)c3C)cn2)cc1` (single isomer, unassigned) [Example 69, 2-[1-[2-[1-(4-Methoxyphenyl)pyrazol-4-yl]-3,6-dimethyl-4-oxo-chromen-8-yl]ethylamino]benzoic acid, Isomer 1,2,2,2-trifluoroacetic acid], the IC50 in assay [1] (Soy PI lipid substrate) is less than 0.5 µM; in assay [2] (Soy PI lipid substrate), 0.5 to 1 µM.

Regarding `Cc1cc(C(C)Nc2ccccc2C(=O)O)c2oc(-c3cc(C#N)ccn3)cc(=O)c2c1` (centres unmarked) [Example 10, 2-[1-[2-(4-Cyano-2-pyridyl)-6-methyl-4-oxo-chromen-8-yl]ethylamino]benzoic acid 2,2,2-trifluoroacetic acid], the IC50 in assay [1] (Soy PI lipid substrate) lay within 0.5 to 1 µM; in assay [2] (Soy PI lipid substrate), 1 to 5 µM.

For the compound `Cc1cc(C(C)Nc2ccccc2C(=O)O)c2oc(-c3ccc(OC(C)C)nc3)cc(=O)c2c1` (single isomer, unassigned; isomer 2) [Example 31, 2-[1-[2-(6-Isopropoxy-3-pyridyl)-6-methyl-4-oxo-chromen-8-yl]ethylamino]benzoic acid, Isomer 2], the IC50 is less than 0.5 µM in assay [1] (PIP2diC8 lipid substrate) and 1 to 5 µM in assay [2] (PIP2diC8 lipid substrate).

The term IC50 denotes the concentration that inhibits the measured activity by half.
